Biological target: T1, PIKFYVE (Homo sapiens, UniProt Q9Y2I7)
T1 construct: purchased Eurofins (KINOMEscan); host or cells: E. coli BL21-derived (T7 phage display) or HEK-293
Assay: KINOMEscan Kinase Assay (Eurofins), PIKFYVE inhibitory activity
Assay type: binding
Details: for IC50: KINOMEscan; for inhibition at 0.005 µM: @ 5 nM

T1 sequence (Q9Y2I7 whole entry): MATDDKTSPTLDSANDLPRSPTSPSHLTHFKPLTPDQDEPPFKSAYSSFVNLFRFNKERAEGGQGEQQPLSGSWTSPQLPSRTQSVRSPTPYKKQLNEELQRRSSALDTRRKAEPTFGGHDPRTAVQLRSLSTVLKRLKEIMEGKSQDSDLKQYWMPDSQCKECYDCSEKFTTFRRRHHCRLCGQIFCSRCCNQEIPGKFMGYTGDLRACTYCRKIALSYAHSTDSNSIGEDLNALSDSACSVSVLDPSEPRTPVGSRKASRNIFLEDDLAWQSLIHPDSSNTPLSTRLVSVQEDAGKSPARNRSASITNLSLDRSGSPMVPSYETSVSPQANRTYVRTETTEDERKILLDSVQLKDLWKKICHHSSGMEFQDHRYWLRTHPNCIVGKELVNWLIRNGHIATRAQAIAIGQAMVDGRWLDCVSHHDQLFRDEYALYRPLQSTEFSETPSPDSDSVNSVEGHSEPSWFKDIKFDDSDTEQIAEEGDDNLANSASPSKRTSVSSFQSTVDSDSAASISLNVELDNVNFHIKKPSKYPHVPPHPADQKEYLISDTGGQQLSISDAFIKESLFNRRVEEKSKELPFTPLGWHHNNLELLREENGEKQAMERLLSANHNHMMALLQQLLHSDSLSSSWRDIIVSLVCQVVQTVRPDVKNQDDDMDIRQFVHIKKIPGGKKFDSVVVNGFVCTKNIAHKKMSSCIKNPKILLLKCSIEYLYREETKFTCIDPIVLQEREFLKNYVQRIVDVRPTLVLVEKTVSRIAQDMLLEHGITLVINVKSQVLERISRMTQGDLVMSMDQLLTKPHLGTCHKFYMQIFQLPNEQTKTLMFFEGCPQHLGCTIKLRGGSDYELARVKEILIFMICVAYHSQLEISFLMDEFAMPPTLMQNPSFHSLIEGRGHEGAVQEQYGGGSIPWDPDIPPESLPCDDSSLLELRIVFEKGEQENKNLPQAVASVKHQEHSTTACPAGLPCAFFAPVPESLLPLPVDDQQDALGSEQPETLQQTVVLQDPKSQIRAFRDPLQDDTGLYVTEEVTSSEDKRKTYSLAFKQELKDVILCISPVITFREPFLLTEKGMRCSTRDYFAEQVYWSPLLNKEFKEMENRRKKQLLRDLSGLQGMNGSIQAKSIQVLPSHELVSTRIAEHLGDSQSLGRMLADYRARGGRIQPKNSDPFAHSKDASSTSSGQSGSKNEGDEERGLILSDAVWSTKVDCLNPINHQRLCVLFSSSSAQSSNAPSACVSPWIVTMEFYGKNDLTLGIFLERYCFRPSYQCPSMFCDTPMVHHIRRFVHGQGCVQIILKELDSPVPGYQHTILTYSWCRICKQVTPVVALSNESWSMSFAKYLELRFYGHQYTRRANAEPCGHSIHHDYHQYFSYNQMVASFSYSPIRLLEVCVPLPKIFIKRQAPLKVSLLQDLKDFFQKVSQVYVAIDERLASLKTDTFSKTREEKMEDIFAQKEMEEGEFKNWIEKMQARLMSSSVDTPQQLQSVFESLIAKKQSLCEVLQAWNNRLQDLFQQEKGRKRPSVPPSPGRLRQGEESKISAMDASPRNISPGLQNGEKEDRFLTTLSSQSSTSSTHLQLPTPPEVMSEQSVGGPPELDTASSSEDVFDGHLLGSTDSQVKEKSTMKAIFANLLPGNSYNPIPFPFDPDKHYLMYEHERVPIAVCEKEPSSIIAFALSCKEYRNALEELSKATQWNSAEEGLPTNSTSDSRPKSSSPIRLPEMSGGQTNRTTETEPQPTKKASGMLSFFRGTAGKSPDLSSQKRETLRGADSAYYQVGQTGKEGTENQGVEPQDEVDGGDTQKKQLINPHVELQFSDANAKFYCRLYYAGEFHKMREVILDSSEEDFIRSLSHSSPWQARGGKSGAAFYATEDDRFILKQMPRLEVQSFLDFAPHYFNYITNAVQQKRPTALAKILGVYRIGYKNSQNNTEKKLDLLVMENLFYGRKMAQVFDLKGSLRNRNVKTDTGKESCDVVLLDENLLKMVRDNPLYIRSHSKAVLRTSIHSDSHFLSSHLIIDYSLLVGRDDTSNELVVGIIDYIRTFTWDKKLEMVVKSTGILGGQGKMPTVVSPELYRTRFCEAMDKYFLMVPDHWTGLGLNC

| IC50 [nM] | SMILES | also measured |
| --- | --- | --- |
| < 1 | Cc1cccc(-c2ccn(-c3nc(N4CCOCC4)c4sc(CN5CC(N(C)C)C5)cc4n3)n2)c1 [Ex. 32, N,N-dimethyl-1-((4-morpholino-2-(3-(m-tolyl)-1H-pyrazol-1-yl)thieno[3,2-d]pyrimidin-6-yl)methyl)azetidin-3-amine] | – |
| < 1 | Cc1cccc(-c2ccn(-c3nc(N4CCOCC4)c4sc(C(=O)N5CCC(C(C)(C)O)CC5)c(C)c4n3)n2)c1 [Ex. 61, (4-(2-hydroxypropan-2-yl)piperidin-1-yl)(7-methyl-4-morpholino-2-(3-(m-tolyl)-1H-pyrazol-1-yl)thieno[3,2-d]pyrimidin-6-yl)methanone] | – |
| 1 to 10 | Cc1cccc(-c2ccn(-c3nc(N4CCOCC4)c4sc(C(=O)N5CCN(C)CC5)c(C)c4n3)n2)c1 [Ex. 59, (7-methyl-4-morpholino-2-(3-(m-tolyl)-1H-pyrazol-1-yl)thieno[3,2-d]pyrimidin-6-yl)(4-methylpiperazin-1-yl)methanone] | – |
| < 1 | Cc1cccc(-c2ccn(-c3nc(N4CCOCC4)c4sc(C(=O)N5CCC(C(C)(C)O)CC5)cc4n3)n2)c1 [Ex. 22, (4-(2-hydroxypropan-2-yl)piperidin-1-yl)(4-morpholino-2-(3-(m-tolyl)-1H-pyrazol-1-yl)thieno[3,2-d]pyrimidin-6-yl)methanone] | – |
| 1 to 10 | Cc1cccc(-c2ccn(-c3nc(N4CCOCC4)c4nc(CN5CCN(S(C)(=O)=O)CC5)n(C)c4n3)n2)c1 [Ex. 57, 4-(9-methyl-8-((4-(methylsulfonyl)piperazin-1-yl)methyl)-2-(3-(m-tolyl)-1H-pyrazol-1-yl)-9H-purin-6-yl)morpholine] | – |
| 1 to 10 | Cc1cccc(-c2ccn(-c3nc(N4CCOCC4)c4nc(CN5CCOCC5)sc4n3)n2)c1 [Ex. 30, 4-((7-morpholino-5-(3-(m-tolyl)-1H-pyrazolyl)thiazolo[5,4-d]pyrimidin-2-yl)methyl)morpholine] | – |
| < 1 | Cc1cccc(-c2ccn(-c3nc(N4CCOCC4)c4sc(C(=O)N5CCC(N(C)C)CC5)cc4n3)n2)c1 [Ex. 23, (4-(dimethylamino)piperidin-1-yl)(4-morpholino-2-(3-(m-tolyl)-1H-pyrazol-1-yl)thieno[3,2-d]pyrimidin-6-yl)methanone] | – |
| < 1 | Cc1cccc(-c2ccn(-c3nc(N4CCOCC4)c4sc(-c5cnn(C)c5)cc4n3)n2)c1 [Ex. 37, 4-(6-(1-methyl-1H-pyrazol-4-yl)-2-(3-(m-tolyl)-1H-pyrazol-1-yl)thieno[3,2-d]pyrimidin-4-yl)morpholine] | – |
| 1 to 10 | Cc1cccc(-c2ccn(-c3nc(N4CCOCC4)c4nc(CN5CCC(C(C)(C)O)CC5)n(C)c4n3)n2)c1 [Ex. 62, 2-(1-((9-methyl-6-morpholino-2-(3-(m-tolyl)-1H-pyrazol-1-yl)-9H-purin-8-yl)methyl)piperidin-4-yl)propan-2-ol] | – |
| < 1 | Cc1cccc(-c2ccn(-c3cc(N4CCOCC4)c4sc(CN5CCN(S(C)(=O)=O)CC5)cc4n3)n2)c1 [Ex. 68, 4-(2-((4-(methylsulfonyl)piperazin-1-yl)methyl)-5-(3-(m-tolyl)-1H-pyrazol-1-yl)thieno[3,2-b]pyridin-7-yl)morpholine] | – |
| – | CC(O)c1cccc(-c2ccn(-c3cc(N4CCOCC4)c4sc(CN5CCOCC5)cc4n3)n2)c1 (stereo not drawn) [Ex. 193, 1-(3-(1-(7-Morpholino-2-(morpholinomethyl)thieno[3,2-b]pyridin-5-yl)-1H-pyrazol-3-yl)phenyl)ethan-1-ol] | inhibition at 0.005 µM: 22% |
| < 1 | Cc1cccc(-c2ccn(-c3cc(N4CCOCC4)c4nc(CN5CCC(N(C)C)C(F)C5)[nH]c4n3)n2)c1 (stereo not drawn) [Ex. 52, 3-fluoro-N,N-dimethyl-1-((7-morpholino-5-(3-(m-tolyl)-1H-pyrazol-1-yl)-3H-imidazo[4,5-b]pyridin-2-yl)methyl)piperidin-4-amine] | – |
| < 1 | Cc1cccc(-c2ccn(-c3nc(N4CCOCC4)c4nc(CN5CCN(S(C)(=O)=O)CC5)[nH]c4n3)n2)c1 [Ex. 10, 4-(8-((4-(methylsulfonyl)piperazin-1-yl)methyl)-2-(3-(m-tolyl)-1H-pyrazol-1-yl)-9H-purin-6-yl)morpholine] | – |
| 10 to 100 | Cc1cccc(-c2ccn(-c3nc(N4CCCOCC4)c4sc(CN5CCN(S(C)(=O)=O)CC5)cc4n3)n2)c1 [Ex. 71, 4-(6-((4-(methylsulfonyl)piperazin-1-yl)methyl)-2-(3-(m-tolyl)-1H-pyrazol-1-yl)thieno[3,2-d]pyrimidin-4-yl)-1,4-oxazepane] | – |
| < 1 | Cc1cccc(-c2ccn(-c3nc(N4CCOCC4)c4nc(CN5CC(N6CCCC6)C5)[nH]c4n3)n2)c1 [Ex. 36, 4-(8-((3-(pyrrolidin-1-yl)azetidin-1-yl)methyl)-2-(3-(m-tolyl)-1H-pyrazol-1-yl)-9H-purin-6-yl)morpholine] | – |
| < 1 | Cc1cccc(-c2ccn(-c3nc(N4CCOCC4)c4sc(CN5CC[C@@H](N(C)C)C5)cc4n3)n2)c1 [Ex. 18, (R)—N,N-dimethyl-1-((4-morpholino-2-(3-(m-tolyl)-1H-pyrazol-1-yl)thieno[3,2-d]pyrimidin-6-yl)methyl)pyrrolidin-3-amine] | – |
| – | Cc1cc(-c2ccn(-c3cc(N4CCOCC4)c4sc(CN5CCOCC5)cc4n3)n2)ccn1 [Ex. 190, 4-(5-(3-(2-Methylpyridin-4-yl)-1H-pyrazol-1-yl)-2-(morpholinomethyl)thieno[3,2-b]pyridin-7-yl) morpholine] | inhibition at 0.005 µM: 5% |

| IC50 [nM] | SMILES | also measured |
| --- | --- | --- |
| > 100 | Cc1cccc(-c2ccn(-c3nc(N4CCOCC4)c4sc(CN5CCC(N6CCOCC6)CC5)cc4n3)n2)c1 [Ex. 33, 4-(1-((4-morpholino-2-(3-(m-tolyl)-1H-pyrazol-1-yl)thieno[3,2-d]pyrimidin-6-yl)methyl)piperidin-4-yl)morpholine] | – |
| – | Cc1cccc(-c2ccn(-c3nc(N4CCOCC4)c4sc(CO)c(C)c4n3)n2)c1 [Ex. 53, (7-methyl-4-morpholino-2-(3-(m-tolyl)-1H-pyrazol-1-yl)thieno[3,2-d]pyrimidin-6-yl)methanol] | inhibition at 0.001 µM (@ 1 nM): 17% |
| < 1 | Cc1cccc(-c2ccn(-c3nc(N4CCOCC4)c4nc(CN5CCC(N(C)C)CC5)sc4n3)n2)c1 [Ex. 16, N,N-dimethyl-1-((7-morpholino-5-(3-(m-tolyl)-1H-pyrazol-1-yl)thiazolo[5,4-d]pyrimidin-2-yl)methyl)piperidin-4-amine] | – |
| < 1 | Cc1cccc(-c2ccn(-c3cc(N4CCOCC4)c4nc(CN5CCOCC5)[nH]c4n3)n2)c1 [Ex. 38, 4-((7-morpholino-5-(3-(m-tolyl)-1H-pyrazol-1-yl)-3H-imidazo[4,5-b]pyridin-2-yl)methyl)morpholine] | – |
| < 1 | Cc1cccc(-c2ccn(-c3nc(N4CCOCC4)c4sc(CN5CCN(S(C)(=O)=O)CC5)c(C)c4n3)n2)c1 [Ex. 54, 4-(7-methyl-6-((4-(methylsulfonyl)piperazin-1-yl)methyl)-2-(3-(m-tolyl)-1H-pyrazol-1-yl)thieno[3,2-d]pyrimidin-4-yl)morpholine] | – |
| – | Cc1cccc(-c2ccn(-c3nc(N4CCOCC4)c4sc(N5CCN(S(C)(=O)=O)CC5)cc4n3)n2)c1 [Ex. 165, 4-(6-(4-(methylsulfonyl)piperazin-1-yl)-2-(3-(m-tolyl)-1H-pyrazol-1-yl)thieno[3,2-d]pyrimidin-4-yl)morpholine] | inhibition at 0.003 µM (@ 3 nM): 22% |
| < 1 | Cc1cccc(-c2ccn(-c3cc(N4CCOCC4)c4nc(CN5CC[C@@H](N(C)C)C5)[nH]c4n3)n2)c1 [Ex. 41, (R)—N,N-dimethyl-1-((7-morpholino-5-(3-(m-tolyl)-1H-pyrazol-1-yl)-3H-imidazo[4,5-b]pyridin-2-yl)methyl)pyrrolidin-3-amine] | – |
| 1 to 10 | Cc1cccc(-c2ccn(-c3nc(N4CCOCC4)c4nc(CN5CCN(C)CC5)sc4n3)n2)c1 [Ex. 34, 4-(2-((4-methylpiperazin-1-yl)methyl)-5-(3-(m-tolyl)-1H-pyrazol-1-yl)thiazolo[5,4-d]pyrimidin-7-yl)morpholine] | – |
| < 1 | Cc1cccc(-c2ccn(-c3nc(N4CCOCC4)c4sc(CN5CCOCC5)cc4n3)n2)c1 [Ex. 29, 4-((4-morpholino-2-(3-(m-tolyl)-1H-pyrazol-1-yl)thieno[3,2-d]pyrimidin-6-yl)methyl)morpholine] | – |
| < 1 | Cc1cccc(-c2ccn(-c3cc(N4CCOCC4)c4sc(CN5CCOCC5)cc4n3)n2)c1 [Ex. 66, 4-((7-morpholino-5-(3-(m-tolyl)-1H-pyrazol-1-yl)thieno[3,2-b]pyridin-2-yl)methyl)morpholine] | – |
| – | CC(=O)c1cccc(-c2ccn(-c3cc(N4CCOCC4)c4sc(CN5CCOCC5)cc4n3)n2)c1 [Ex. 184, 1-(3-(1-(7-Morpholino-2-(morpholinomethyl)thieno[3,2-b]pyridin-5-yl)-1H-pyrazol-3-yl)phenyl)ethan-1-one] | inhibition at 0.005 µM: 5% |
| < 1 | Cc1cccc(-c2ccn(-c3cc(N4CCOCC4)c4nc(CN5CCN(S(C)(=O)=O)CC5)[nH]c4n3)n2)c1 [Ex. 27, 4-(2-((4-(methylsulfonyl)piperazin-1-yl)methyl)-5-(3-(m-tolyl)-1H-pyrazol-1-yl)-3H-imidazo[4,5-b]pyridin-7-yl)morpholine] | – |
| – | Cc1cccc(-c2ccn(-c3nc(N4CCC(=O)C4)c4sc(CN5CCN(S(C)(=O)=O)CC5)cc4n3)n2)c1 [Ex. 129, 1-(6-((4-(methylsulfonyl)piperazin-1-yl)methyl)-2-(3-(m-tolyl)-1H-pyrazol-1-yl)thieno[3,2-d]pyrimidin-4-yl)pyrrolidin-3-one] | inhibition at 0.03 µM (@ 30 nM): 92% |
| < 1 | Cc1cccc(-c2ccn(-c3cc(N4CCOCC4)c4nc(CN5CCC(N(C)C)CC5)[nH]c4n3)n2)c1 [Ex. 28, N,N-dimethyl-1-((7-morpholino-5-(3-(m-tolyl)-1H-pyrazol-1-yl)-3H-imidazo[4,5-b]pyridin-2-yl)methyl)piperidin-4-amine] | – |
| 1 to 10 | Cc1cccc(-c2ccn(-c3nc(N4CCOCC4)c4nc(CN5CCN(S(C)(=O)=O)CC5)sc4n3)n2)c1 [Ex. 9, 4-(2-((4-(methylsulfonyl)piperazin-1-yl)methyl)-5-(3-(m-tolyl)-1H-pyrazol-1-yl)thiazolo[5,4-d]pyrimidin-7-yl)morpholine] | – |
| < 1 | Cc1cccc(-c2ccn(-c3cc(N4CCOCC4)c4sc(CN5CCC(N6CCC6)C(F)C5)cc4n3)n2)c1 (stereo not drawn) [Ex. 70, 4-(2-((4-(azetidin-1-yl)-3-fluoropiperidin-1-yl)methyl)-5-(3-(m-tolyl)-1H-pyrazol-1-yl)thieno[3,2-b]pyridin-7-yl)morpholine] | – |

Reference: patent US20230265103A1 (TME Therapeutics LLC, priority 2021, published 2023)
